From patent US20230085307A1, “PYRIDAZINONE COMPOUND AND HERBICIDE” (NISSAN CHEMICAL CORPORATION, priority 2019, published 2023)

Legend:
green foxtail [1] = test: Test Example 4: herbicidal effect by soil treatment (Table 19, symbol G); format: in vivo, green foxtail (Setaria viridis); conditions: amount of applied herbicide 320 g/ha
Outline: (§1)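 In this soil treatment, the formulated compound reached the seeds only through the soil: seeds were buried about 1.5 cm deep in sterilized diluvial soil, then the diluted emulsion was sprayed over the surface. After three weeks at 25° C. to 30° C. in a greenhouse, effects were graded on criteria from an earlier test.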

wild oat = test: Test Example 5: herbicidal effect by foliage application, plastic box (Table 20, symbol I); format: in vivo, wild oat (Avena fatua); conditions: foliage application, 320 g/ha
Outline: (§2)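 Plants were sown into sterilized diluvial soil under about 1.5 cm cover and kept in a greenhouse at 25° C. to 30° C. Fourteen days on, foliage received an even spray of the diluted emulsion. Herbicidal or crop effect was judged three weeks afterwards.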

velvetleaf [2] = test: Test Example 4: herbicidal effect by soil treatment (Table 19, symbol M); format: in vivo, velvetleaf (Abutilon theophrasti); conditions: amount of applied herbicide 320 g/ha
Outline: as §1

late watergrass [3] = test: Test Example 1: herbicidal activity, application before weed generation under submerged conditions (Table 16, symbol A); format: in vivo, late watergrass (Echinochloa oryzicola); conditions: amount of applied herbicide 320 g/ha
Outline: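 Emulsion formulation, water-diluted to set dose, was put onto the flooded surface (4 cm depth, alluvial soil) the same day weeds were sown and 2.5-leaf rice transplanted. After 3 weeks at 25-30 °C under glass, each species was rated 0 (≤5% kill) to 5 (≥90% kill).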

barnyard grass [4] = test: Test Example 3: herbicidal effect by foliage application, Wagner pot (Table 18, symbol H); format: in vivo, barnyard grass (Echinochloa crus-galli); conditions: for herbicidal effect on barnyard grass (H): 320 g/ha; for Herbicidal effect on H (barnyard grass), foliage application: amount of applied herbicide 320 g/ha
Outline: (§3)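 Plants were sown in alluvial soil held under 0.1–0.5 cm standing water and grown 14 days in a greenhouse at 25–30 °C. An emulsifiable formulation, water-diluted to the set dose, was then sprayed onto the foliage, and effects were scored three weeks later using previously defined criteria.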

green foxtail [5] = test: Test Example 5: herbicidal effect by foliage application, plastic box (Table 20, symbol G); format: in vivo, green foxtail (Setaria viridis); conditions: foliage application, 320 g/ha
Outline: as §2

redroot pigweed [6] = test: Test Example 4: herbicidal effect by soil treatment (Table 19, symbol N); format: in vivo, redroot pigweed (Amaranthus retroflexus); conditions: amount of applied herbicide 320 g/ha
Outline: as §1

lambsquarters = test: Test Example 5: herbicidal effect by foliage application, plastic box (Table 20, symbol O); format: in vivo, lambsquarters (Chenopodium album); conditions: foliage application, 320 g/ha
Outline: as §2

barnyard grass [7] = test: Test Example 5: herbicidal effect by foliage application, plastic box (Table 20, symbol H); format: in vivo, barnyard grass (Echinochloa crus-galli); conditions: foliage application, 320 g/ha
Outline: as §2

false cleavers = test: Test Example 4: herbicidal effect by soil treatment (Table 19, symbol Q); format: in vivo, false cleavers (Galium spurium); conditions: amount of applied herbicide 320 g/ha
Outline: as §1

windgrass [8] = test: Test Example 5: herbicidal effect by foliage application, plastic box (Table 20, symbol L); format: in vivo, windgrass (Apera spica-venti); conditions: foliage application, 320 g/ha
Outline: as §2

oval-leafed pondweed = test: Test Example 2: herbicidal activity, application during weed generation under submerged conditions (Table 17, symbol C); format: in vivo, oval-leafed pondweed (Monochoria vaginalis); conditions: AAH 320 g/ha; application during weed generation, submerged conditions
Outline: (§4)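 3-wk visual-criteria score after one water-surface dose. Emulsion formulation, water-diluted to set rate; applied at 1–2 leaf stage; alluvial soil, 4 cm standing water; seeds co-sown; greenhouse 25–30° C.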

velvetleaf [9] = test: Test Example 5: herbicidal effect by foliage application, plastic box (Table 20, symbol M); format: in vivo, velvetleaf (Abutilon theophrasti); conditions: foliage application, 320 g/ha
Outline: as §2

Chinese sprangletop = test: Test Example 3: herbicidal effect by foliage application, Wagner pot (Table 18, symbol D); format: in vivo, chinese sprangletop (Leptochloa chinensis); conditions: for herbicidal effect on Chinese sprangletop (D): 320 g/ha; for Herbicidal effect on D (Chinese sprangletop), foliage application: amount of applied herbicide 320 g/ha
Outline: as §3

late watergrass [10] = test: Test Example 2: herbicidal activity, application during weed generation under submerged conditions (Table 17, symbol A); format: in vivo, late watergrass (Echinochloa oryzicola); conditions: AAH 320 g/ha; application during weed generation, submerged conditions
Outline: as §4

redroot pigweed [11] = test: Test Example 5: herbicidal effect by foliage application, plastic box (Table 20, symbol N); format: in vivo, redroot pigweed (Amaranthus retroflexus); conditions: foliage application, 320 g/ha; for N: redroot pigweed, herbicidal effect grade: three weeks after application
Outline: as §2

windgrass [12] = test: Test Example 4: herbicidal effect by soil treatment (Table 19, symbol L); format: in vivo, windgrass (Apera spica-venti); conditions: amount of applied herbicide 320 g/ha
Outline: as §1

[13] = evaluated 3 weeks after application

## CCOc1cc(F)ccc1-c1sc2cc(Cl)ccc2c1-c1c(O)c(C)nn(C)c1=O [3-045]
Green foxtail [1]
  G: green foxtail, herbicidal effect grade: 4 (Herbicidal rate of 70% or more and less than 90%)
Wild oat; three weeks after application
  I: wild oat, herbicidal effect grade: 5 (Herbicidal rate of 90% or more (almost completely withered))
Velvetleaf [2]
  M: velvetleaf, herbicidal effect grade: 2 (Herbicidal rate of 20% or more and less than 40%)
Late watergrass [3]
  Herbicidal effect, A: late watergrass: 2 (Herbicidal rate of 20% or more and less than 40%)
Barnyard grass [4]
  herbicidal effect on barnyard grass (H): 5 (Herbicidal rate of 90% or more (almost completely withered))
Green foxtail [5]; three weeks after application
  G: green foxtail, herbicidal effect grade: 5 (Herbicidal rate of 90% or more (almost completely withered))
Redroot pigweed [6]
  N: redroot pigweed, herbicidal effect grade: 3 (Herbicidal rate of 40% or more and less than 70%)
lambsquarters; three weeks after application
  O: lambsquarters, herbicidal effect grade: 3 (Herbicidal rate of 40% or more and less than 70%)
Barnyard grass [7]; three weeks after application
  H: barnyard grass, herbicidal effect grade: 5 (Herbicidal rate of 90% or more (almost completely withered))
False cleavers
  Q: false cleavers, herbicidal effect grade: 4 (Herbicidal rate of 70% or more and less than 90%)
Windgrass [8]; three weeks after application
  L: windgrass, herbicidal effect grade: 5 (Herbicidal rate of 90% or more (almost completely withered))
oval-leafed pondweed
  herbicidal effect rating, C: oval-leafed pondweed: 0 (Herbicidal rate of 5% or less (almost no effect))
Velvetleaf [9]; three weeks after application
  M: velvetleaf, herbicidal effect grade: 5 (Herbicidal rate of 90% or more (almost completely withered))
Chinese sprangletop
  herbicidal effect on Chinese sprangletop (D): 4 (Herbicidal rate of 70% or more and less than 90%)
Late watergrass [10]
  herbicidal effect rating, A: late watergrass: 2 (Herbicidal rate of 20% or more and less than 40%)
Redroot pigweed [11]
  N: redroot pigweed, herbicidal effect grade: 4 (Herbicidal rate of 70% or more and less than 90%)

## COc1ccc(-c2oc3ccc(Cl)cc3c2-c2c(O)c(C)nn(C)c2=O)cc1 [9-002]
Green foxtail [1]
  G: green foxtail, herbicidal effect grade: 1 (Herbicidal rate of 5% or more and less than 20%)
Windgrass [12]
  L: windgrass, herbicidal effect grade: 5 (Herbicidal rate of 90% or more (almost completely withered))
Wild oat; three weeks after application
  herbicidal effect on wild oat (I): 0 (Herbicidal rate of 5% or less (almost no effect))
Velvetleaf [2]
  M: velvetleaf, herbicidal effect grade: 2 (Herbicidal rate of 20% or more and less than 40%)
Late watergrass [3]
  Herbicidal effect, A: late watergrass: 0 (Herbicidal rate of 5% or less (almost no effect))
Barnyard grass [4]
  Herbicidal effect on H (barnyard grass), foliage application: 3 (Herbicidal rate of 40% or more and less than 70%)
Green foxtail [5]; three weeks after application
  herbicidal effect on green foxtail (G): 0 (Herbicidal rate of 5% or less (almost no effect))
Redroot pigweed [6]
  N: redroot pigweed, herbicidal effect grade: 4 (Herbicidal rate of 70% or more and less than 90%)
lambsquarters; three weeks after application
  herbicidal effect on lambsquarters (O): 4 (Herbicidal rate of 70% or more and less than 90%)
Barnyard grass [7]; three weeks after application
  herbicidal effect on barnyard grass (H): 0 (Herbicidal rate of 5% or less (almost no effect))
False cleavers
  Q: false cleavers, herbicidal effect grade: 0 (Herbicidal rate of 5% or less (almost no effect))
Windgrass [8]; three weeks after application
  herbicidal effect on windgrass (L): 1 (Herbicidal rate of 5% or more and less than 20%)
oval-leafed pondweed
  herbicidal effect rating, C: oval-leafed pondweed: 3 (Herbicidal rate of 40% or more and less than 70%)
Velvetleaf [9]; three weeks after application
  herbicidal effect on velvetleaf (M): 5 (Herbicidal rate of 90% or more (almost completely withered))
Chinese sprangletop
  Herbicidal effect on D (Chinese sprangletop), foliage application: 0 (Herbicidal rate of 5% or less (almost no effect))
Late watergrass [10]
  herbicidal effect rating, A: late watergrass: 0 (Herbicidal rate of 5% or less (almost no effect))

## COCCOc1ccc(-c2oc3ccc(F)cc3c2-c2c(O)c(C)nn(C)c2=O)cc1 [9-045]
Green foxtail [1]
  G: green foxtail, herbicidal effect grade: 5 (Herbicidal rate of 90% or more (almost completely withered))
Wild oat; [13]
  I (wild oat) herbicidal effect grade: 2 (Herbicidal rate of 20% or more and less than 40%)
Velvetleaf [2]
  M: velvetleaf, herbicidal effect grade: 5 (Herbicidal rate of 90% or more (almost completely withered))
Late watergrass [3]
  Herbicidal effect, A: late watergrass: 5 (Herbicidal rate of 90% or more (almost completely withered))
Barnyard grass [4]
  Herbicidal effect on H (barnyard grass), foliage application: 5 (Herbicidal rate of 90% or more (almost completely withered))
Green foxtail [5]; [13]
  G (green foxtail) herbicidal effect grade: 5 (Herbicidal rate of 90% or more (almost completely withered))
Redroot pigweed [6]
  N: redroot pigweed, herbicidal effect grade: 5 (Herbicidal rate of 90% or more (almost completely withered))
lambsquarters; [13]
  O (lambsquarters) herbicidal effect grade: 5 (Herbicidal rate of 90% or more (almost completely withered))
Barnyard grass [7]; [13]
  H (barnyard grass) herbicidal effect grade: 5 (Herbicidal rate of 90% or more (almost completely withered))
False cleavers
  Q: false cleavers, herbicidal effect grade: 0 (Herbicidal rate of 5% or less (almost no effect))
Windgrass [8]; [13]
  L (windgrass) herbicidal effect grade: 3 (Herbicidal rate of 40% or more and less than 70%)
oval-leafed pondweed
  herbicidal effect rating, C: oval-leafed pondweed: 5 (Herbicidal rate of 90% or more (almost completely withered))
Velvetleaf [9]; [13]
  M (velvetleaf) herbicidal effect grade: 5 (Herbicidal rate of 90% or more (almost completely withered))
Chinese sprangletop
  Herbicidal effect on D (Chinese sprangletop), foliage application: 3 (Herbicidal rate of 40% or more and less than 70%)
Late watergrass [10]
  herbicidal effect rating, A: late watergrass: 3 (Herbicidal rate of 40% or more and less than 70%)
Redroot pigweed [11]; [13]
  N (redroot pigweed) herbicidal effect grade: 5 (Herbicidal rate of 90% or more (almost completely withered))

## COc1ccccc1-c1sc2cc(OCC(F)(F)F)ccc2c1-c1c(O)c(C)nn(C)c1=O [Compound No. 3-116, 5-hydroxy-4-(2-(2-methoxyphenyl)-6-(2,2,2-trifluoroethoxy)benzo[b]thiophen-3-yl)-2,6-di methylpyridazin-3 (2H)-one]
Green foxtail [1]
  G: green foxtail, herbicidal effect grade: 5 (Herbicidal rate of 90% or more (almost completely withered))
Windgrass [12]
  L: windgrass, herbicidal effect grade: 4 (Herbicidal rate of 70% or more and less than 90%)
Wild oat; three weeks after application
  I: wild oat, herbicidal effect grade: 5 (Herbicidal rate of 90% or more (almost completely withered))
Velvetleaf [2]
  M: velvetleaf, herbicidal effect grade: 4 (Herbicidal rate of 70% or more and less than 90%)
Late watergrass [3]
  Herbicidal effect, A: late watergrass: 5 (Herbicidal rate of 90% or more (almost completely withered))
Barnyard grass [4]
  herbicidal effect on barnyard grass (H): 5 (Herbicidal rate of 90% or more (almost completely withered))
Green foxtail [5]; three weeks after application
  G: green foxtail, herbicidal effect grade: 5 (Herbicidal rate of 90% or more (almost completely withered))
Redroot pigweed [6]
  N: redroot pigweed, herbicidal effect grade: 5 (Herbicidal rate of 90% or more (almost completely withered))
lambsquarters; three weeks after application
  O: lambsquarters, herbicidal effect grade: 5 (Herbicidal rate of 90% or more (almost completely withered))
Barnyard grass [7]; three weeks after application
  H: barnyard grass, herbicidal effect grade: 5 (Herbicidal rate of 90% or more (almost completely withered))
Windgrass [8]; three weeks after application
  L: windgrass, herbicidal effect grade: 5 (Herbicidal rate of 90% or more (almost completely withered))
oval-leafed pondweed
  herbicidal effect rating, C: oval-leafed pondweed: 4 (Herbicidal rate of 70% or more and less than 90%)
Velvetleaf [9]; three weeks after application
  M: velvetleaf, herbicidal effect grade: 5 (Herbicidal rate of 90% or more (almost completely withered))
Chinese sprangletop
  herbicidal effect on Chinese sprangletop (D): 5 (Herbicidal rate of 90% or more (almost completely withered))
Late watergrass [10]
  herbicidal effect rating, A: late watergrass: 4 (Herbicidal rate of 70% or more and less than 90%)
Redroot pigweed [11]
  N: redroot pigweed, herbicidal effect grade: 5 (Herbicidal rate of 90% or more (almost completely withered))
